US12070457B2, “Substituted pyridines, pyridazines, pyrimidines, and 1,2,3-triazines as bruton's tyrosine kinase inhibitors” (HUTCHISON MEDIPHARMA LIMITED, priority 2020, dated 2024)

Tests used:
[1] = Stability test in liver microsomes (mouse); format: in vitro ADME; conditions: 1 μM compound; for stability in mouse liver microsomes compared with reference GDC-0853: 0.5 mg/mL liver microsomes, 30 minutes incubation; for MLM, percentage of remaining compound after 30 minutes of incubation: mouse liver microsomes
Source text: (§1) Example 5 Stability Test in Liver Microsomes
(§2) Both male CD-1 mouse pooled liver microsomes and male SD rat pooled liver microsomes were purchased from BioreclamationIVT Corporation, USA.
(§3) Phenacetin, glucose-6-phosphate dehydrogenase (G-6-PDH) and nicotinamide adenine dinucleotide phosphate (NADP) were all purchased from Sigma-Aldrich Corporation, USA. Glucose-6-phosphate (G-6-P) was purchased from Shanghai Eybridge Chemical Technology Co., Ltd.
(§4) Ten mM test compound stock solution: a certain amount of test compound was weighed, and dissolved with an appropriate volume of DMSO to prepare a stock solution with a concentration of 10 mM for use.
(§5) Reaction stopping solution: an appropriate amount of internal standard compound phenacetin was dissolved in acetonitrile to prepare a reaction stopping solution with a concentration of 1000 ng/mL for use at room temperature.
(§6) The test compound stock solution was diluted with an organic solvent (usually a mixture of acetonitrile, methanol and water with various ratios, depending on the solubility of the compound, if necessary, 1 N hydrochloric acid or 1 N sodium hydroxide would be added to facilitate solubilization) to the 0.1 mM (the final concentration of the compound in the reaction system was 1 μM) and the concentration percentage of the organic solvents in the incubation system no more than 1% (wherein the percentage of DMSO was required to be no more than 0.1%). An appropriate amount of 100 mM NADP, 500 mM G-6-P and 100 Unit/mL G-6-PDH were mixed and diluted with ultrapure water (the final system contains 1 mM NADP, 5 mM G-6-P and 1 Unit/mL G-6-PDH), pre-incubated in a 37° C. water bath for 10 minutes and then placed on ice for use as a NADPH regeneration solution. 20 mg/mL liver microsomes solution and 200 mM phosphate buffer was mixed, and diluted with ultrapure water to give a liver microsomes solution containing 2.5 mg/mL liver microsomes (the final concentration of the reaction system is 0.5 mg/mL) and 50 mM phosphate buffer. The diluted liver microsomes solution was mixed with 0.1 mM compound solution, a mixture of 100 mM EDTA, 300 mM MgCl2 solution, 200 mM phosphate buffer (the final system was 3 mM MgCl2, 1 mM EDTA and 50 mM phosphate buffer) and water in an appropriate volume was added. Finally, the NADPH regeneration solution was added, then the reaction solution was placed in a 37° C. water bath to start the reaction (the reaction time was 30 minutes), and the reaction was stopped by adding the ice-cold acetonitrile reaction stopping solution containing the internal standard. The 0-minute sample was not incubated in a 37° C. water bath, and its difference from the 30-minute sample further lies in that the ice-cold acetonitrile reaction stopping solution containing the internal standard was added first, and then the NADPH regeneration solution was added. The sample added with the reaction stopping internal standard solution was vortexed and mixed well, and then centrifuged at 4400 rpm for 10 minutes. The supernatant was taken and diluted ten times with 50% methanol for LC-MS/MS analysis.
(§7) LC-MS/MS was used to determine the concentration of the compound in the sample. The percentage of the remaining compound after 30 minutes of incubation comparing with that in the 0-minute sample was calculated using the peak area ratio of the compound to the internal standard as an indicator, to evaluate the metabolic stability of the compound.
(§8) Instrument: API4500, API4000 or LTQ Mass Spectrometer; the liquid phase is UHPLC system (Shimadzu LC-30 AD, model Nexra X2) including liquid delivery unit, column thermostat, detector and autosampler; or Agilent 1200 Binary Pump series HPLC and CTC Autosampler.
(§9) Chromatographic column: Waters XSELECT Hss T3 C18 (2.5 μm, 2.1×50 mm) or […] (5 μm, 2.0×50 mm)
(§10) Mobile phase: • A: water with 0.1% FA (formic acid) (with or without 0.1% ACN (acetonitrile)) • B: acetonitrile with 0.1% FA (formic acid).

[2] = Stability test in liver microsomes (rat); format: in vitro ADME; conditions: 1 μM compound; for stability in rat liver microsomes compared with reference GDC-0853: 0.5 mg/mL liver microsomes, 30 minutes incubation; for RLM, percentage of remaining compound after 30 minutes of incubation: rat liver microsomes
Source text: as §1, §2, §3, §4, §5, §6, §7, §8, §9, §10

| SMILES | stability in mouse liver microsomes compared with reference GDC-0853 [1] | MLM, percentage of remaining compound after 30 minutes of incubation [1] [%] | stability in rat liver microsomes compared with reference GDC-0853 [2] | RLM, percentage of remaining compound after 30 minutes of incubation [2] [%] |
| --- | --- | --- | --- | --- |
| CC1CCc2cc3c(=O)n(-c4nccc(-c5cc(Nc6ccc(N7CCN(C8COC8)C[C@@H]7C)cn6)c(=O)n(C)c5)c4CO)ccn3c2C1 (mixture of isomers) [Compound 78] | better than that of the reference GDC-0853 | 83.4 | better than that of the reference GDC-0853 | 91.8 |
| C[C@@H]1CN(c2ccc(Nc3cc(-c4ccnc(-n5ccn6c7c(cc6c5=O)CCC7)c4CO)cn(C)c3=O)nc2)[C@@H](C)CN1C1COC1 [Compound 2, 2-(5-((5-((2S,5R)-2,5-dimethyl-4-(oxetan-3-yl)piperazin-1-yl)pyridin-2-yl)amino)-3′-(hydroxymethyl)-1-methyl-6-oxo-1,6-dihydro-[3,4′-bispyridin]-2′-yl)-7,8-dihydro-2H-cyclopenta[4,5]pyrrolo[1,2-α]pyrazin-1(6H)-one] | better than that of the reference GDC-0853 | 90.5 | better than that of the reference GDC-0853 | 98.9 |
| Cn1cc(-c2ccnc(-n3ccn4c5c(cc4c3=O)CC(C)(C)C5)c2CO)cc(Nc2ccc(N3CCN(C4COC4)CC3)cn2)c1=O [Compound 9] | better than that of the reference GDC-0853 | 95.7 | better than that of the reference GDC-0853 | 89.5 |
| C[C@H]1CN(C2COC2)CCN1c1cnc(Nc2cc(-c3ccnc(-n4ccn5c6c(cc5c4=O)CC(C)(C)C6)c3CO)cn(C)c2=O)nc1 [Compound 44] | better than that of the reference GDC-0853 | 93.1 | better than that of the reference GDC-0853 | 97.1 |
| C[C@H]1CN(C2COC2)CCN1c1ccc(Nc2cc(-c3ccnc(-n4ccn5c6c(cc5c4=O)CCC(F)(F)C6)c3CO)cn(C)c2=O)nc1 [Compound 56] | better than that of the reference GDC-0853 | 89.5 | better than that of the reference GDC-0853 | 93.7 |
| C[C@H]1CN(C2COC2)CCN1c1ccc(Nc2cc(-c3ccnc(-n4ccn5c6c(cc5c4=O)CC(F)(F)CC6)c3CO)cn(C)c2=O)nc1 [Compound 58] | better than that of the reference GDC-0853 | 97.1 | better than that of the reference GDC-0853 | ~100 |
| C[C@H]1CN(C2COC2)CCN1c1ccc(Nc2cc(-c3ccnc(-n4cnn5c6c(cc5c4=O)CC(C)(C)C6)c3CO)cn(C)c2=O)nc1 [Compound 63] | better than that of the reference GDC-0853 | 85.8 | better than that of the reference GDC-0853 | 89.6 |
| C[C@H]1CN(C2COC2)CCN1c1ccc(Nc2cc(-c3ccnc(-n4ccn5c6c(cc5c4=O)CCC6)c3CO)cn(C)c2=O)nc1 [Compound 64] | better than that of the reference GDC-0853 | 95.6 | better than that of the reference GDC-0853 | 92.1 |
| C[C@H]1CN(C2COC2)CCN1c1ccc(Nc2cc(-c3ccnc(-n4ccn5c(cc6ccccc65)c4=O)c3CO)cn(C)c2=O)nc1 [Compound 74] | better than that of the reference GDC-0853 | 97.5 | better than that of the reference GDC-0853 | 87.7 |
| C[C@H]1CN(C2COC2)CCN1c1ccc(Nc2cc(-c3ccnc(-n4ccn5c(cc6cc(F)ccc65)c4=O)c3CO)cn(C)c2=O)nc1 [Compound 75] | better than that of the reference GDC-0853 | 83.0 | better than that of the reference GDC-0853 | 84.0 |
| C[C@H]1CN(C2COC2)CCN1c1ccc(Nc2cc(-c3ccnc(-n4ncn5c6c(cc5c4=O)CC(C)(C)C6)c3CO)cn(C)c2=O)nc1 [Compound 79] | better than that of the reference GDC-0853 | ~100 | better than that of the reference GDC-0853 | ~100 |
